In US11634458B2, “Peptides and compositions for use in cosmetics and medicine” (LIPOTRUE, S.L., priority 2018, dated 2023):

Assays:
LAN cells = experiment: Measurement of acetylcholine release in differentiated LAN cells stimulated with 50 mM KCl; format: cell-based; settings: 1 hour treatment, 0.001, 0.005 and 0.01 mg/mL (Ac-SEQ ID NO: 8-NH2: 0.005 and 0.05 mg/mL)
Description: Said peptides were tested for their ability to modulate acetylcholine release in vitro. To that end, LAN cells were seeded on 48-well culture plates and allowed to reach the appropriate confluence under controlled conditions (37° C., 5% CO2) before inducing differentiation by replacing the culture media with Neurobasal® A media, supplemented with N-2 Supplement, GlutaMAX™, choline chloride and Leukemia Inhibition factor (GIBCO, Life technologies, MA, USA). Once the cells acquired its differentiated morphology, they were treated with the peptides mentioned above at the following concentrations for 1 hour: all peptides, except Ac-SEQ ID NO: 8-NH2, at 0.001 mg/mL, 0.005 mg/mL and 0.01 mg/mL; and peptide Ac-SEQ ID NO: 8-NH2 at 0.005 mg/mL and 0.05 mg/mL. Cells were then washed with HEPES, before stimulation of acetylcholine release by depolarization with external 50 mM KCl solution. Non-stimulated cells were incubated with non-depolarizing 4 mM KCl solution. After 30 minutes of incubation with the corresponding depolarizing or non-depolarizing KCl solution, cell supernatants were collected and used to measure acetylcholine levels with Amplex Red Acetylcholine Assay Kit (ThermoFisher Scientific, MA, USA). Cell pellets were used to determine protein content by BCA Protein Test Assay (Pierce BCA Protein Assay kit, ThermoFisher Scientific, MA, USA) (for data normalization purposes).
Percentage of acetylcholine release inhibition was calculated considering 100% release for the positive control (non-treated stimulated with KCl cells).

Munc18/Syntaxin-1 = Munc18/Syntaxin-1 (Homo sapiens, UniProt Q16623); experiment: ELISA-based in vitro Munc18/Syntaxin-1 binding assay; settings: peptide 0.1, 0.5 and 1 mM; Munc18 100 nM, Syntaxin-1 10 and 5 nM; control = 100% binding
Munc18/Syntaxin-1, sequence (Q16623 whole entry): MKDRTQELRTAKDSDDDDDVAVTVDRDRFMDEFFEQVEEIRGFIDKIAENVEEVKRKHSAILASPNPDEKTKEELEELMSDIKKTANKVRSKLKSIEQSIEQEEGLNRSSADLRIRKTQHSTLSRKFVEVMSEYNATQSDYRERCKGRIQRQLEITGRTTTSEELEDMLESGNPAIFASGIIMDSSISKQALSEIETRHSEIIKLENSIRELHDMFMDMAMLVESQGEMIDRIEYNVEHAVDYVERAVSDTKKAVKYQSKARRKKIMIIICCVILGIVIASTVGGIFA
Description: The capacity of the peptides to inhibit Munc18 protein-protein interaction with Syntaxin-1, a SNARE complex protein, was functionally evaluated by means of an ELISA-based in vitro Munc18/Syntaxin-1 binding assay. Briefly, the above-mentioned peptides at 0.1, 0.5 and 1 mM were preincubated with their target protein Syntaxin-1 (GST-tagged) at 10 and 5 nM in buffer (20 mM Hepes, 150 mM NaCl, 2 mM MgC2, 2 mM DTT, 0.5% Triton-X100 and 0.5% non-fat milk) for 3 hours at RT. Meanwhile, His-tagged Munc18 was bound to a Nickel-coated 96-well plate at 100 nM and incubated at RT for 1.5 hours. Non-bound protein was subsequently washed away before blocking wells with non-fat milk in wash buffer (PBS+0.02% Triton-X100) for additional 30 minutes. GST-tagged Syntaxin-1 preincubated with the peptides was then added at 10 and 5 nM to the plate and incubated for 2 h at RT. Wells were washed three times with wash buffer before incubation with the primary antibody (GST tag polyclonal antibody—Thermofisher Scientific, Massachusetts, USA) for 45 minutes. Finally, after washing again, HRP-conjugated secondary antibody (Anti-Rabbit-IgG-HRP—Sigma, Missouri, USA) was added and incubated at RT. TMB substrate (3,3′,5,5′-Tetramethylbenzidine) was used to develop signal. […] Amount of binding of Syntaxin-1 protein to Munc18 protein was analysed by measuring absorbance at 450 nm.

[1] = test system: human skeletal muscle cells; experiment: Calcium mobilization assay (Fluo-4 NW) after 60 mM KCl; format: cell-based; settings: 48 hours, vs untreated control
Description: The potential of said peptide Ac-SEQ ID NO: 8-NH2 to reduce calcium mobilization on human skeletal muscle cells was evaluated in vitro with Fluo-4 NW Calcium Assay Kit (ThermoFisher Scientific, MA USA). Briefly, human skeletal muscle myoblasts were seeded in quintuplicates in a black 96-well plate, clear bottom, at a density of 1×10^4 cells/well and maintained at standard culture conditions (37° C., 95% humidity, 5% CO2) for 48-72h. Myoblast differentiation to myocyte was then induced with specific differentiation medium (SKM-D medium+1% a/a) and monitored for 7 more days. Differentiated cells were treated with non-cytotoxic concentrations of peptide Ac-SEQ ID NO: 8-NH2 (0.01 mg/mL, 0.05 mg/mL and 0.1 mg/mL) for additional 48 hours.
Once incubation was finished, cell culture medium was replaced by 100 μl of Dye loading solution and the plate was kept on the incubator for 30 minutes. Dye solution was then replaced by assay buffer prior to calcium measurement using FLUOstar Omega instrument (BMG Labtech, Germany). For appropriate kinetic measurement, a pre-stimulus phase of 10 seconds was set to determine the baseline signal before induction of calcium influx by addition of 60 mM KCl. Post-stimulus phase was set at 90 seconds, with readings every 0.1 seconds at 494/516 nm (excitation/emission).
The following steps were performed for data analysis: 1) Calculation of a mean kinetic curve for each condition; 2) determination of maximum fluorescent signal for each curve after stimulation with KCl; 3) calculation of the fold change increase versus baseline; 4) normalization of results obtained for each condition (each peptide concentration) versus the one obtained for the control (untreated cells).

[2] = test system: human muscle cells and motor neurons derived from hiPSC co-cultures; experiment: Contraction frequency in human muscle cell / hiPSC motor neuron co-cultures; format: cell-based
Description: The potential of said peptide Ac-SEQ ID NO: 8-NH2 to modulate the contraction frequency was evaluated in vitro using human muscle cells and motor neurons derived from hiPSC co-cultures, by means of live-imaging video of localized contractile muscle fibers recorded with an InCell 2200 automated microscope during 60 seconds, before and after treatment (after treatment, at each of the established timepoints).
Human muscle cells were cultivated at a density of 1×10^6 cells in T75 cm^2 flasks and then transferred to 96 well plates for differentiation. Motor neurons derived from hiPSC were transferred onto the 96 well plates containing the muscle cells in a differentiation medium. Co-cultures were maintained for 10 days in order to generate neurons junctions with muscle fibers. Spontaneous contractions were observed within 5 days.
Co-cultures were then treated with control medium (basal), 1 μM α-bungarotoxin, 0.5 mg/mL of acetyl hexapeptide-8 as a benchmark reference and 0.05 or 0.1 mg/mL of peptide Ac-SEQ ID NO: 8-NH2. Movies of co-cultures were recorded during 60 seconds before treatment and, after 30 minutes of incubation, movies were recorded again during 60 seconds. The culture plate was incubated again for 1 h 30 min with compounds (2 h of total incubation), and movies of co-cultures were recorded again during 60 seconds. The culture plate was incubated again for a total of 24 h with compounds and at the end of the incubation movies were recorded again during 60 seconds. Finally, compounds were washed out and a last recording after 24 h from said washed out of the compounds was done to assess an eventual recovery of muscle contractions (recovery).
Frequencies of contraction were calculated before and after each incubation. For each culture condition, 6 wells were analyzed.

Ac-His-Ala-Leu-Arg-Phe-Trp-NH2 [Ac-SEQ ID NO: 8-NH2]
Result: modulation of acetylcholine release (LAN cells): Active in the modulation of
Maximum inhibition of Munc18-Syntaxin-1 binding (Munc18/Syntaxin-1): 37%
reduction of calcium influx ([1]; 0.01 mg/mL): −6%
reduction of calcium influx ([1]; 0.05 mg/mL): −20%
reduction of calcium influx ([1]; 0.1 mg/mL): −30%
muscle contraction frequency with regard to the basal non-treated cells ([2]; 0.05 mg/mL, 24 h incubation): 23%
muscle contraction frequency with regard to the basal non-treated cells ([2]; 0.05 mg/mL, after 30 min): 25%
muscle contraction frequency with regard to the basal non-treated cells ([2]; 0.05 mg/mL, recovery 24 h after washout): 65%
muscle contraction frequency with regard to the basal non-treated cells ([2]; 0.1 mg/mL, 24 h incubation): 10%
muscle contraction frequency with regard to the basal non-treated cells ([2]; 0.1 mg/mL, after 30 min): 18%
muscle contraction frequency with regard to the basal non-treated cells ([2]; 0.1 mg/mL, recovery 24 h after washout): 35%
